Laboratory results taken from US8586300B2, “Genetic polymorphisms and infertility” (The University of North Carolina at Chapel Hill, priority 2008, dated 2013).

Tests used:
[1] = system: isolated rat hepatic mitochondria; details: inhibition of electron transport chain Complex I (rotenone) or Complex II (malonate); cited from earlier work
sperm [2] = experiment: Sperm motility (progressively motile sperm, hemocytometer) after betaine supplementation via drinking water; type: in vivo, mouse
Protocol: (§1) FIGS. 17A-17D are bar graphs showing the results of betaine supplementation on sperm concentration, motility and mitochondrial function in CHDH+/+ (WT), CHDH+/−, and CHDH−/− (KO) mice. […] Spermatozoa concentration was determined by counting cells using a hemocytometer. Results are presented as mean±SEM, n=9-11 animals per genotype. […] Motility assays were performed by counting the number of progressively motile sperm per total number of sperm in 5 squares of a hemocytometer. The results are presented as the mean % motility±SEM, p<0.001, n=8-9 animals per genotype. […] Absorbance values were normalized to the number of sperm assayed. All assays were performed in duplicate. The value for each animal is the mean of 4 assays (2 cauda epididymii, each assayed in duplicate per animal). Results are presented as the mean±SEM, p<0.05, n=5 animals/group. […] The number of cells that fluoresced red was counted in 5 random fields of vision for each sample and results are expressed as a percent of the total cells in those fields. Results are presented as mean±SEM, p<0.001, n=5 animals/group.
Eight to 10 week old CHDH^+/+ and CHDH^−/− male mice were anesthetized with Halothane (Henry Schein, Inc.). A V-shaped incision was made beginning at the penis and extending out to the midline of the body. Testis and epididymis were excised from the animal and immediately placed in a 6-well tissue culture dish containing approximately 1 ml of M16 media (Sigma) in a well. All media, plates and tubes used were warmed to 37° C. prior to the dissection. Any plate or tube containing sperm, once isolated, was kept at 37° C. with 5% CO2 for the duration of the experiment. The cauda epididymis was separated from the other structures and then placed in a 24-well plate containing 300 μl of fresh M16 media in each well. The cauda epididymis was then cut several times and the dish was incubated at 37° C. with 5% CO2 for 15 minutes. Sperm concentration was determined by counting cells with a hemocytometer. Percent motility was determined by counting the number of progressively motile sperm per total number of sperm present using a hemocytometer. “Progressively motile sperm” refers to sperm that swim forward in a somewhat straight line. Sperm that were moving, but that were swimming in circles were classified as non-progressively motile.
To determine whether sperm motility can be restored through betaine supplementation, CHDH−/− mice were given drinking water supplemented to 2% betaine for 38 days.

sperm [3] = experiment: Sperm concentration (hemocytometer) after betaine supplementation; type: in vivo, mouse
Protocol: as §1, with “Results are presented as mean±SEM, p<0.001, n=5 animals/group.” left out
Eight to 10 week old CHDH^+/+ and CHDH^−/− male mice were anesthetized with Halothane (Henry Schein, Inc.). […] Sperm concentration was determined by counting cells with a hemocytometer. Percent motility was determined by counting the number of progressively motile sperm per total number of sperm present using a hemocytometer. […]

spermatozoa mitochondria [4] = experiment: MTT assay of mitochondrial function in sperm after betaine supplementation; type: in vivo, mouse
Protocol: as §1
Sperm were isolated from the cauda epididymis as described above. An MTT (3-(4,5-dimethyl thiazol-2-yl)-2,5-diphenyl tetrazolium bromide) assay was conducted to measure mitochondrial function (Nasr-Esfahani, Aboutorabi et al. 2002) with the following modification: rather then visualizing positive MTT staining microscopically, MTT assays were conducted using a commercially available MIT assay kit (CellTiter 96 Non-radioactive Cell Proliferation Assay, Promega, Madison, Wis., United States of America) and cells were solubolized with the provided Solubolization/Stop Mix. 100 μL of isolated sperm were incubated in F10 media (Invitrogen Inc., Carlsbad, Calif., United States of America) in a 96-well plate with 15 μL of MTT solution at 37° C./5% CO2 for 2 hours. Following solubolization, the absorbance of each sample was read at a wavelength of 562 nm using a BIOTEK® plate reader (BioTek Instruments Inc., Winooski, Vt., United States of America). Absorbance was normalized to the number of sperm assayed.

spermatozoa mitochondria [5] = experiment: JC-1 staining, mitochondrial membrane potential in sperm after betaine supplementation; type: in vivo, mouse; details: JC-1 staining of sperm
Protocol: as §1, with “animal).” for “animal). Results are presented as the mean±SEM, p<0.05, n=5 animals/group.”, “Results are presented as mean±SEM, p<0.001, n=5 animals/group.” left out
To detect changes in mitochondrial membrane polarization, JC-1 staining was performed on sperm harvested from cauda epididymis (see FIGS. 8-11 and 13). […] 20 μl of each stained sample was examined with a fluorescence microscope (Olympus BX50, Olympus America, Inc., Center Valley, Pa., United States of America) and large band epifluorescence filters. […] Five fields of vision were counted for each sample and results expressed as percent of total cells.

[6] = humans, dietary supplementation; cited from earlier work

MTT conversion compared to untreated CHDH+/+ sperm (spermatozoa mitochondria [4]; CHDH+/+ spermatozoa, betaine via drinking water for 42 days)	SMILES	choline-stimulated mitochondrial respiration [1]	effect on motility of spermatozoa (sperm [2]; CHDH+/+ or CHDH+/- spermatozoa, betaine via drinking water for 42 days)	sperm motility (sperm [2]; CHDH+/- mice, betaine supplementation)	asthenospermic phenotype (sperm [2]; CHDH-/- males, betaine via drinking water for 42 days)	progressive sperm motility (sperm [2]; CHDH-/- mice, drinking water supplemented to 2% betaine for 38 days)	effect on sperm concentration (sperm [3]; CHDH+/+, CHDH+/- or CHDH-/- mice, betaine supplementation)	number of sperm produced (sperm [3]; males of any CHDH genotype, betaine via drinking water for 42 days)	decrease of MTT conversion (spermatozoa mitochondria [4]; CHDH+/+ sperm, betaine supplementation)	amount of MTT reduction (spermatozoa mitochondria [4]; CHDH+/- or CHDH-/- spermatozoa, betaine supplementation)	changes in mitochondrial function, as measured by MTT assay and JC-1 staining (spermatozoa mitochondria [4]; betaine via drinking water for 42 days, exception CHDH+/+ MTT conversion)	effect on inner mitochondrial membrane potential (ΔΨm) (spermatozoa mitochondria [5])	plasma tHcy concentrations [6]
–	O=C(O)CC(=O)O [malonate]	decreases	–	–	–	–	–	–	–	–	–	–	–
significantly decreased	C[N+](C)(C)CC(=O)O [betaine]	–	nor was there any effect	unaffected	improved, but not fully rescued	approximately 30%	did not have any effect	did not alter	67%	did not change	No changes	no effect	effective in lowering
–	C=C(C)[C@H]1Cc2c(ccc3c2O[C@@H]2COc4cc(OC)c(OC)cc4[C@@H]2C3=O)O1 [rotenone]	decreases	–	–	–	–	–	–	–	–	–	–	–
